Results reported in US8802597B2, “Herbicidal pyrimidines” (E I du Pont de Nemours and Company, priority 2003, dated 2014).

Legend:
Format in all cases: in vivo
[1] = tested on: windgrass (Apera spica-venti); assay: Test C postemergence; details: for Plant response rating, Windgrass: scale 0 to 100
Procedure, shortened: (§1)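 Test compounds, formulated in a non-phytotoxic solvent mix with surfactant, were applied to freshly planted seeds and, at the same time, to emerged plants at 1- to 4-leaf stage (2 to 18 cm). After 12 to 14 days in the greenhouse, response was scored visually versus controls, 0 = no effect, 100 = complete control.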

[2] = tested on: green foxtail (Setaria viridis); assay: Test C postemergence; details: for Plant response rating, Foxtail, Green: scale 0 to 100
Procedure, shortened: as §1

[3] = tested on: wheat (Triticum aestivum); assay: Test C postemergence; details: for Plant response rating, Wheat: scale 0 to 100
Procedure, shortened: as §1

[4] = tested on: Italian ryegrass (Lolium multiflorum); assay: Test C postemergence; details: for Plant response rating, Ryegrass, Italian: scale 0 to 100
Procedure, shortened: as §1

[5] = tested on: blackgrass (Alopecurus myosuroides); assay: Test C postemergence; details: for Plant response rating, Blackgrass: scale 0 to 100
Procedure, shortened: as §1

[6] = tested on: downy brome (Bromus tectorum); assay: Test C postemergence; details: for Plant response rating, Bromegrass, Downy: scale 0 to 100
Procedure, shortened: as §1

[7] = tested on: canarygrass (Phalaris minor); assay: Test C postemergence; details: for Plant response rating, Canarygrass: scale 0 to 100
Procedure, shortened: as §1

wild oat (Avena fatua) = assay: Test C postemergence; details: for Plant response rating, Oat, Wild: scale 0 to 100
Procedure, shortened: as §1

[8] = tested on: winter barley (Hordeum vulgare); assay: Test C postemergence; details: for Plant response rating, Barley: scale 0 to 100
Procedure, shortened: as §1

[9] = tested on: crabgrass (Digitaria sanguinalis); assay: Test A pre/postemergence
Procedure, shortened: (§2)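 Seeds in loam–sand blend received preemergence directed soil spray and, concurrently, postemergence application (plants 2–10 cm, 1–2-leaf stage) of compound in non-phytotoxic solvent with surfactant. After about ten days in greenhouse, injury rated visually versus untreated controls, 0 (no effect) to 100 (complete control).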

[10] = tested on: velvetleaf (Abutilon theophrasti); assay: Test A pre/postemergence
Procedure, shortened: as §2

[11] = tested on: redroot pigweed (Amaranthus retroflexus); assay: Test A pre/postemergence
Procedure, shortened: as §2

[12] = tested on: morningglory (Ipomoea spp.); assay: Test A pre/postemergence
Procedure, shortened: as §2

[13] = 125 g ai/ha, scale 0 to 100 (0 no effect, 100 complete control)
[14] = 62 g ai/ha, scale 0 to 100 (0 no effect, 100 complete control)
[15] = Postemergence, 125 g ai/ha, 0 to 100 scale (0 no effect, 100 complete control)
[16] = Postemergence, 500 g ai/ha, 0 to 100 scale (0 no effect, 100 complete control)
[17] = Preemergence, 125 g ai/ha, 0 to 100 scale where 0 is no effect and 100 is complete control, approximately ten days
[18] = Preemergence, 500 g ai/ha, 0 to 100 scale where 0 is no effect and 100 is complete control, approximately ten days

## Nc1nc(-c2ccc(Br)cc2)nc(C(=O)O)c1Br [Compound 136]
[1]; 16 g ai/ha
  Plant response rating (scale of 0 to 100), Windgrass: 45
[1]; 31 g ai/ha
  Plant response rating (scale of 0 to 100), Windgrass: 60
[1]; 62 g ai/ha
  Plant response rating (scale of 0 to 100), Windgrass: 65
[1]; [13]
  Windgrass plant response rating: 65
[2]; 16 g ai/ha
  Plant response rating (scale of 0 to 100), Foxtail, Green: 45
[2]; 31 g ai/ha
  Plant response rating (scale of 0 to 100), Foxtail, Green: 65
[2]; 62 g ai/ha
  Plant response rating (scale of 0 to 100), Foxtail, Green: 70
[2]; [13]
  Foxtail, Green plant response rating: 70
[3]; 16 g ai/ha
  Plant response rating (scale of 0 to 100), Wheat: 20
[3]; 31 g ai/ha
  Plant response rating (scale of 0 to 100), Wheat: 40
[3]; 62 g ai/ha
  Plant response rating (scale of 0 to 100), Wheat: 45
[3]; [13]
  Wheat plant response rating: 55
[4]; 16 g ai/ha
  Plant response rating (scale of 0 to 100), Ryegrass, Italian: 45
[4]; 31 g ai/ha
  Plant response rating (scale of 0 to 100), Ryegrass, Italian: 50
[4]; 62 g ai/ha
  Plant response rating (scale of 0 to 100), Ryegrass, Italian: 60
[4]; [13]
  Ryegrass, Italian plant response rating: 65
[5]; 16 g ai/ha
  Plant response rating (scale of 0 to 100), Blackgrass: 40
[5]; 31 g ai/ha
  Plant response rating (scale of 0 to 100), Blackgrass: 55
[5]; 62 g ai/ha
  Plant response rating (scale of 0 to 100), Blackgrass: 65
[5]; [13]
  Blackgrass plant response rating: 65
[6]; 16 g ai/ha
  Plant response rating (scale of 0 to 100), Bromegrass, Downy: 30
[6]; 62 g ai/ha
  Plant response rating (scale of 0 to 100), Bromegrass, Downy: 45
[6]; [13]
  Bromegrass, Downy plant response rating: 55
[7]; 16 g ai/ha
  Plant response rating (scale of 0 to 100), Canarygrass: 40
[7]; 31 g ai/ha
  Plant response rating (scale of 0 to 100), Canarygrass: 45
[7]; 62 g ai/ha
  Plant response rating (scale of 0 to 100), Canarygrass: 55
[7]; [13]
  Canarygrass plant response rating: 65
Wild oat (Avena fatua); 16 g ai/ha
  Plant response rating (scale of 0 to 100), Oat, Wild: 40
Wild oat (Avena fatua); 31 g ai/ha
  Plant response rating (scale of 0 to 100), Oat, Wild: 45
Wild oat (Avena fatua); 62 g ai/ha
  Plant response rating (scale of 0 to 100), Oat, Wild: 55
Wild oat (Avena fatua); [13]
  Oat, Wild plant response rating: 60
[8]; 16 g ai/ha
  Plant response rating (scale of 0 to 100), Barley: 40
[8]; 31 g ai/ha
  Plant response rating (scale of 0 to 100), Barley: 50
[8]; [14]
  Barley plant response rating: 50
[8]; [13]
  Barley plant response rating: 55
[9]; [15]
  Plant response rating, Crabgrass: 35
[9]; [16]
  Plant response rating, Crabgrass: 70
[9]; [17]
  Plant response rating, Crabgrass: 20
[9]; [18]
  Plant response rating, Crabgrass: 60
[10]; [15]
  Plant response rating, Velvetleaf: 85
[10]; [16]
  Plant response rating, Velvetleaf: 95
[10]; [17]
  Plant response rating, Velvetleaf: 30
[10]; [18]
  Plant response rating, Velvetleaf: 75
[11]; [15]
  Plant response rating, Pigweed: 85
[11]; [16]
  Plant response rating, Pigweed: 100
[11]; [17]
  Plant response rating, Pigweed: 45
[11]; [18]
  Plant response rating, Pigweed: 100
[12]; [15]
  Plant response rating, Morningglory: 70
[12]; [16]
  Plant response rating, Morningglory: 80
[12]; [17]
  Plant response rating, Morningglory: 10
[12]; [18]
  Plant response rating, Morningglory: 20

## COC(=O)c1nc(C2CC2)nc(NO)c1Br [Compound 35]
[1]; 250 g ai/ha
  Plant response rating, Windgrass: 65
[1]; 500 g ai/ha
  Plant response rating, Windgrass: 65
[1]; Apera spica-venti, post-emergence, 62 g ai/ha, scale 0 to 100 (0 no effect, 100 complete control), read-out: Windgrass plant response rating
  pest or weed control at 62 g/ha: 40%
[1]; Apera spica-venti, post-emergence, 125 g ai/ha, scale 0 to 100 (0 no effect, 100 complete control), read-out: Windgrass plant response rating
  pest or weed control at 125 g/ha: 55%
[2]; 250 g ai/ha
  Plant response rating, Foxtail, Green: 60
[2]; 500 g ai/ha
  Plant response rating, Foxtail, Green: 65
[2]; Setaria viridis, post-emergence, 62 g ai/ha, scale 0 to 100 (0 no effect, 100 complete control), read-out: Foxtail, Green plant response rating
  pest or weed control at 62 g/ha: 40%
[2]; Setaria viridis, post-emergence, 125 g ai/ha, scale 0 to 100 (0 no effect, 100 complete control), read-out: Foxtail, Green plant response rating
  pest or weed control at 125 g/ha: 50%
[3]; 250 g ai/ha
  Plant response rating, Wheat: 45
[3]; 500 g ai/ha
  Plant response rating, Wheat: 45
[3]; Triticum aestivum, post-emergence, 62 g ai/ha, scale 0 to 100 (0 no effect, 100 complete control), read-out: Wheat plant response rating
  plant injury at 62 g/ha: 35%
[3]; Triticum aestivum, post-emergence, 125 g ai/ha, scale 0 to 100 (0 no effect, 100 complete control), read-out: Wheat plant response rating
  plant injury at 125 g/ha: 40%
[4]; 250 g ai/ha
  Plant response rating, Ryegrass, Italian: 40
[4]; 500 g ai/ha
  Plant response rating, Ryegrass, Italian: 40
[4]; Lolium multiflorum, post-emergence, 62 g ai/ha, scale 0 to 100 (0 no effect, 100 complete control), read-out: Ryegrass, Italian plant response rating
  pest or weed control at 62 g/ha: 40%
[4]; Lolium multiflorum, post-emergence, 125 g ai/ha, scale 0 to 100 (0 no effect, 100 complete control), read-out: Ryegrass, Italian plant response rating
  pest or weed control at 125 g/ha: 40%
[5]; 250 g ai/ha
  Plant response rating, Blackgrass: 60
[5]; 500 g ai/ha
  Plant response rating, Blackgrass: 65
[5]; Alopecurus myosuroides, post-emergence, 62 g ai/ha, scale 0 to 100 (0 no effect, 100 complete control), read-out: Blackgrass plant response rating
  pest or weed control at 62 g/ha: 50%
[5]; Alopecurus myosuroides, post-emergence, 125 g ai/ha, scale 0 to 100 (0 no effect, 100 complete control), read-out: Blackgrass plant response rating
  pest or weed control at 125 g/ha: 50%
[6]; 250 g ai/ha
  Plant response rating, Bromegrass, Downy: 40
[6]; 500 g ai/ha
  Plant response rating, Bromegrass, Downy: 40
[6]; Bromus tectorum, post-emergence, 62 g ai/ha, scale 0 to 100 (0 no effect, 100 complete control), read-out: Bromegrass, Downy plant response rating
  pest or weed control at 62 g/ha: 30%
[6]; Bromus tectorum, post-emergence, 125 g ai/ha, scale 0 to 100 (0 no effect, 100 complete control), read-out: Bromegrass, Downy plant response rating
  pest or weed control at 125 g/ha: 30%
[7]; 250 g ai/ha
  Plant response rating, Canarygrass: 45
[7]; 500 g ai/ha
  Plant response rating, Canarygrass: 55
[7]; Phalaris minor, post-emergence, 62 g ai/ha, scale 0 to 100 (0 no effect, 100 complete control), read-out: Canarygrass plant response rating
  pest or weed control at 62 g/ha: 35%
[7]; Phalaris minor, post-emergence, 125 g ai/ha, scale 0 to 100 (0 no effect, 100 complete control), read-out: Canarygrass plant response rating
  pest or weed control at 125 g/ha: 45%
Wild oat (Avena fatua); 250 g ai/ha
  Plant response rating, Oat, Wild: 45
Wild oat (Avena fatua); 500 g ai/ha
  Plant response rating, Oat, Wild: 55
Wild oat (Avena fatua); Avena fatua, post-emergence, 62 g ai/ha, scale 0 to 100 (0 no effect, 100 complete control), read-out: Oat, Wild plant response rating
  pest or weed control at 62 g/ha: 30%
Wild oat (Avena fatua); Avena fatua, post-emergence, 125 g ai/ha, scale 0 to 100 (0 no effect, 100 complete control), read-out: Oat, Wild plant response rating
  pest or weed control at 125 g/ha: 45%
[8]; 250 g ai/ha
  Plant response rating, Barley: 40
[8]; 500 g ai/ha
  Plant response rating, Barley: 45
[8]; Hordeum vulgare, post-emergence, 62 g ai/ha, scale 0 to 100 (0 no effect, 100 complete control), read-out: Barley plant response rating
  plant injury at 62 g/ha: 20%
[8]; Hordeum vulgare, post-emergence, 125 g ai/ha, scale 0 to 100 (0 no effect, 100 complete control), read-out: Barley plant response rating
  plant injury at 125 g/ha: 35%

## CNN=Cc1nc(C2CC2)nc(N)c1Br [Compound 49]
[1]; [14]
  Windgrass plant response rating: 40
[1]; [13]
  Windgrass plant response rating: 40
[1]; 250 g ai/ha
  Plant response rating, Windgrass: 60
[1]; 500 g ai/ha
  Plant response rating, Windgrass: 60
[2]; [14]
  Foxtail, Green plant response rating: 0
[2]; [13]
  Foxtail, Green plant response rating: 20
[2]; 250 g ai/ha
  Plant response rating, Foxtail, Green: 50
[2]; 500 g ai/ha
  Plant response rating, Foxtail, Green: 60
[3]; [14]
  Wheat plant response rating: 20
[3]; [13]
  Wheat plant response rating: 40
[3]; 250 g ai/ha
  Plant response rating, Wheat: 50
[3]; 500 g ai/ha
  Plant response rating, Wheat: 60
[4]; [14]
  Ryegrass, Italian plant response rating: 30
[4]; [13]
  Ryegrass, Italian plant response rating: 30
[4]; 250 g ai/ha
  Plant response rating, Ryegrass, Italian: 50
[4]; 500 g ai/ha
  Plant response rating, Ryegrass, Italian: 50
[5]; [14]
  Blackgrass plant response rating: 40
[5]; [13]
  Blackgrass plant response rating: 40
[5]; 250 g ai/ha
  Plant response rating, Blackgrass: 50
[5]; 500 g ai/ha
  Plant response rating, Blackgrass: 60
[6]; [14]
  Bromegrass, Downy plant response rating: 0
[6]; [13]
  Bromegrass, Downy plant response rating: 0
[6]; 250 g ai/ha
  Plant response rating, Bromegrass, Downy: 0
[6]; 500 g ai/ha
  Plant response rating, Bromegrass, Downy: 30
[7]; [14]
  Canarygrass plant response rating: 0
[7]; [13]
  Canarygrass plant response rating: 20
[7]; 250 g ai/ha
  Plant response rating, Canarygrass: 30
[7]; 500 g ai/ha
  Plant response rating, Canarygrass: 40
Wild oat (Avena fatua); [14]
  Oat, Wild plant response rating: 30
Wild oat (Avena fatua); [13]
  Oat, Wild plant response rating: 40
Wild oat (Avena fatua); 250 g ai/ha
  Plant response rating, Oat, Wild: 40
Wild oat (Avena fatua); 500 g ai/ha
  Plant response rating, Oat, Wild: 60
[8]; [14]
  Barley plant response rating: 0
[8]; [13]
  Barley plant response rating: 20
[8]; 250 g ai/ha
  Plant response rating, Barley: 30
[8]; 500 g ai/ha
  Plant response rating, Barley: 40
